In PubChem BioAssay AID488877 (The Scripps Research Institute Molecular Screening Center, 2010):
Active and inactive are the calls of the source. How the calls were made is not given here.

Tested on: Vero cells SARS-CoV infected, viability, ATP luminescence
Assay: PubChem AID 488877

CC(C)(C)NC(=O)C(c1cccnc1)N(C(=O)c1ccco1)c1ccc(C(C)(C)C)cc1 (stereo unspecified)
EC50: > 10 µM (inactive)
